The values below come from ChEMBL document CHEMBL3044687, “Microwave-assisted synthesis of some novel and potent antibacterial and antifungal compounds with biological screening” (2012).

Assay type in all cases: functional
Settings in all cases: read-out: DIZ

Assay [1] concerns Pseudomonas aeruginosa. Description: Antibacterial activity against Pseudomonas aeruginosa at 200 ug/ml after 24 hr by disk diffusion method. (In general: In agar diffusion tests the substance spreads into inoculated agar from a disc or well.)
Assay [2] has as its system Candida albicans. Description: Antifungal activity against Candida albicans at 50 ug/ml after 48 hr by disk diffusion method.
The test system of assay [3] is Bacillus subtilis. Description: Antibacterial activity against Bacillus subtilis at 100 ug/ml after 24 hr by disk diffusion method.
In assay [4] the test system is Staphylococcus aureus. The assay can be described thus: Antibacterial activity against Staphylococcus aureus at 50 ug/ml after 24 hr by disk diffusion method.
The test system of assay [5] is Staphylococcus aureus. Description: Antibacterial activity against Staphylococcus aureus at 100 ug/ml after 24 hr by disk diffusion method.
The subject of assay [6] is Bacillus subtilis. The assay can be described thus: Antibacterial activity against Bacillus subtilis at 200 ug/ml after 24 hr by disk diffusion method.
The test system of assay [7] is Staphylococcus aureus. The assay can be described thus: Antibacterial activity against Staphylococcus aureus at 200 ug/ml after 24 hr by disk diffusion method.
The subject of assay [8] is Aspergillus niger. The assay can be described thus: Antifungal activity against Aspergillus niger at 200 ug/ml after 48 hr by disk diffusion method.
For assay [9], the system named is Candida albicans. The assay can be described thus: Antifungal activity against Candida albicans at 200 ug/ml after 48 hr by disk diffusion method.
For assay [10], the system named is Aspergillus niger. Description: Antifungal activity against Aspergillus niger at 100 ug/ml after 48 hr by disk diffusion method.
Assay [11] has as its system Candida albicans. The assay can be described thus: Antifungal activity against Candida albicans at 100 ug/ml after 48 hr by disk diffusion method.
For assay [12], the system named is Aspergillus niger. The assay can be described thus: Antifungal activity against Aspergillus niger at 50 ug/ml after 48 hr by disk diffusion method.
For assay [13], the system named is Escherichia coli. The assay can be described thus: Antibacterial activity against Escherichia coli at 200 ug/ml after 24 hr by disk diffusion method.
In assay [14] the test system is Pseudomonas aeruginosa. The assay can be described thus: Antibacterial activity against Pseudomonas aeruginosa at 50 ug/ml after 24 hr by disk diffusion method.
The test system of assay [15] is Pseudomonas aeruginosa. Description: Antibacterial activity against Pseudomonas aeruginosa at 100 ug/ml after 24 hr by disk diffusion method.
For assay [16], the system named is Bacillus subtilis. The assay can be described thus: Antibacterial activity against Bacillus subtilis at 50 ug/ml after 24 hr by disk diffusion method.
Assay [17] relates to Escherichia coli. Description: Antibacterial activity against Escherichia coli at 100 ug/ml after 24 hr by disk diffusion method.
Assay [18] relates to Escherichia coli. The assay can be described thus: Antibacterial activity against Escherichia coli at 50 ug/ml after 24 hr by disk diffusion method.

Each structure is given as a SMILES string.

On to `O=C1NC(c2ccccc2)(c2ccccc2)C(=O)N1CN1CCOCC1`, for which the zone of inhibition at 200 µg/mL was 14 mm in [1]; 14 mm in [6]; 9 mm in [7]; 12 mm in [8]; 15 mm in assay [9]; 17 mm in assay [13]. The zone of inhibition at 50 µg/mL in [2] amounted to 10 mm; in assay [4], 5 mm; in assay [12] it was 10 mm; in assay [14], 4 mm; in [16] it was 4 mm; in assay [18], 4 mm. Besides, the zone of inhibition at 100 µg/mL came to 12 mm in assay [3]; 6 mm in [5]; 11 mm in assay [10]; 12 mm in [11]; 8 mm in assay [15]; 10 mm in [17].
